Ends that are not written are not given here.
Tests used:
[1] = system: E14 SD rat embryo primary dopaminergic neurons from the ventral mesencephalon; assay type: cell-based
Description: DNSP-11 treatment of Mesencephalic Cells: Timed pregnant SD rats (Harlan) were used to obtain the ventral mesencephalon from E14 fetuses. The dissected tissue was collected in cold Neurobasal™ medium and rinsed twice with cold Dulbecco's PBS. The cells were chemically (TrypLE®) and mechanically dissociated to yield a single cell suspension. The solution was centrifuged at 169 g for 6 minutes and the pellet was resuspended in Dulbecco's Modified Eagle Medium (DMEM). Cells were plated in a 25 μL micro-island at a density of 4000 cells/μL on poly-D-lysine coated 24-well plates (Sigma). Following adherence, cells were supplemented with warm NEUROBASAL™ media containing 2 mM glutamine, 1×N2, and 100 units of penicillin/streptomycin. Neurotrophic compounds were added at each media addition, including initial plating and DIV 2. A dose response of the peptides (0.03 ng to 10 ng/mL) was added to a 24-well plate following media supplementation.
The neurotrophic effects of DNSP-11 were studied by comparing its effects to the well-known effects of GDNF on the maintenance of primary mesencephalic cell cultures from E14 SD rat embryos. E14 SD rat embryo primary dopaminergic neurons from the ventral mesencephalon were grown for 5 days in vitro and neurotrophic molecules were added at each media change, including initial plating and day 2. […] These effects were similar to those observed for GDNF in these cells, including an increase in the size of TH+ neurons, which was not observed for DNSP-11 (Table 4).
In Table 1, cell survival and morphological parameters were quantified for control (citrate buffer) and experimental (0.1 ng/ml GDNF or 0.1 ng/ml DNSP-11) conditions. For morphology, five fields per well (minimum of 15 cells/field; 3-4 independent experiments) were photographed at 20× magnification and quantified using a Bioquant Image Analysis System. […] Soma size was not increased by the addition of DNSP-11. A one-way ANOVA was used to test for significance among groups, followed by a Newman-Keuls post hoc analysis. Significance between control and experimental conditions was determined at *p<0.05 and **p<0.01.

GFRα1 = target: T1, GFRα1 (Homo sapiens, UniProt P56159); assay: Pull-down assay and ELISA with GFRα1; assay type: binding; settings: pull-down with biotinylated DNSP-11; supported by ELISA
T1 sequence (P56159 25-429): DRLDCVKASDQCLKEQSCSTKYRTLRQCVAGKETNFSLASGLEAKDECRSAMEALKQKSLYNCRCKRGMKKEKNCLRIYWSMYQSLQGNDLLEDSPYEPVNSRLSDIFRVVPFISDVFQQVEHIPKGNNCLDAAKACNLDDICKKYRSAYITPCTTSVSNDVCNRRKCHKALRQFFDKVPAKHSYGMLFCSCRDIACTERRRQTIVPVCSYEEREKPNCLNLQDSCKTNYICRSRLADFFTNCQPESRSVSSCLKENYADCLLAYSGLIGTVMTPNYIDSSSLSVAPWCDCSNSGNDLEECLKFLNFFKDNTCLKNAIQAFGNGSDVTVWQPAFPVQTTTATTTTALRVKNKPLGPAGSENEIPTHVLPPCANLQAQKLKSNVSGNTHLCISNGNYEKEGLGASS
Description: Specifically, a solution of 25 μL GFRα1 (1 mg/mL) was incubated with 50 μL of Dynabeads® (Invitrogen) in wash and bind buffer (0.1 M sodium phosphate, pH 8.2, 0.01% ^Tween® 20) for 10 minutes at room temperature. The beads were then washed three times in 100 μl, of wash and bind buffer. 2 μg of GDNF was added and incubated for 1 hour at 4° C. 25 μL GFRα1 (1 mg/mL) was incubated with 40 μg of biotinylated DNSP-11 (bDNSP-11) for 1 hour at 4° C. They were then added to 50 μL of hydrophilic streptavidin magnetic beads (New England Biolabs) and incubated for an hour at 4° C.
Moreover, the absence of interaction between GFRα1 with DNSP-11 is supported by ELISA.

MN9D dopaminergic cells = assay: TUNEL assay, protection against 6-OHDA toxicity; assay type: cell-based; settings: 1 ng/mL for 1 hour before 100 μM 6-OHDA for 15 min; at 24 h
Description: MN9D Cell Cultures: The MN9D cell line has been described by Choi (1991) Brain Res. 552:67-76 and was a gift from Michael Zigmond. Cells were cultured in DMEM supplemented with 10% Fetal Bovine Serum (FBS, Hyclone), 50 U/mL penicillin and streptomycin. For experiments, the cells were plated on 24-well poly-D-lysine in DMEM with 1% (v/v) penicillin-streptomycin. The cells were grown at 37° C. in 5% CO2.
Terminal dUTP Nick-End Labeling (TUNEL) Assay in MN9D Cells: After treatment with DNSP-11, MN9D cells were fixed and labelled to assess degenerative nuclear changes as indicated by the extent of high-molecular weight DNA strand breaks. DNA fragmentation was detected by using steptavidin-horseradish peroxidise conjugate followed by the substrate diaminobenzidine (DAB) generating a colored precipitate. Ratios between apoptotic and total cells were determined (4 random fields/well; 4 wells/ group). Experiments were repeated 3 times.
To evaluate DNSP-11's neuroprotective properties, DNSP-11 was compared to GDNF in its protection against 6-OHDA-induced toxicity in the dopaminergic cell line, MN9D. MN9D dopaminergic cells were incubated for 1 hour with either citrate buffer (control), 1 ng/mL of DNSP-11 or GDNF prior to 100 μM 6-OHDA exposure for 15 min. […]

## PPEAPAEDRSL-NH2 [DNSP-11, PPEAPAEDRSL-amide]
[1]; 0.1 ng/ml, 5 days in vitro, control 100
  Cell survival: *161 ± 17
[1]; 0.1 ng/ml, controls 3.8 ± 0.2 (GDNF), 3.1 ± 0.2 (DNSP-11)
  Average branches per neuron: **4.4 ± 0.3
[1]; 0.1 ng/ml, controls 171 ± 4 (GDNF), 168 ± 3 (DNSP-11)
  Soma size (um^2): 165 ± 5 um^2
[1]; 0.1 ng/ml, controls 242 ± 12 (GDNF), 222 ± 11 (DNSP-11)
  Combined neurite length (um): **306 ± 23 um
[1]; 0.03, 0.1, 1.0 and 10 ng/ml
  TH+ neuron counts: significantly increase
GFRα1
  interaction with GFRα1: do not interact
MN9D dopaminergic cells
  percent of TUNEL positive cells: significant reduction

Reference: patent US9402875B2, “Amidated dopamine neuron stimulating peptide restoration of mitochondrial activity” (University of Kentucky Research Foundation, priority 2006, dated 2016)
